In patent publication US7973027B2, “Compound with antimalarial activity and antimalarial drug containing the same as active ingredient” (Nagoya City University, priority 2006, dated 2011):

Tests used:
[1] = tested on: Mouse mammary tumor FM3A cells; assay: Evaluation of cytotoxicity; type: cell-based; conditions: 37° C., 48 hours, values in FIG. 8 only, stated in words
Method: (2) Evaluation Method of Cytotoxicity (See Hye-Sook Kim; Yasuharu Shibata; Yusuke Wataya; Kaoru Tsuchida; Araki Masuyama; Masatomo Nojima. J. Med. Chem. 1999, 42, 2604-2609)
The concentration of […] (Mouse mammary tumor FM3A cells) is adjusted to 5×10^4 cells/ml, and 5 μl of DMSO solutions of antimalarial drug candidate compounds prepared at various concentrations is added. The cells area cultured at 37° C. for 48 hours and then, the number of surviving cells is counted by the use of microcell counter CC-130 (To a Medical Electric Co.). The measurement results are compared with the results obtained from the control experiment so as to calculate EC50 value.

[2] = tested on: Plasmodium falciparum (ATCC 30932, FCR-3 strain); assay: Evaluation of antimalarial activity (infected human erythrocytes, Giemsa staining); type: cell-based; conditions: 37° C., 72 hours, values in FIG. 8 only, stated in words
Method: Human erythrocyte infected with malaria parasite (Plasmodium falciparum (ATCC 30932, FCR-3 strain)) is prepared on a 24-well culture plate and 5 μl each of DMSO solutions of antimalarial drug candidate compounds prepared at various concentrations is added. Thereafter, the erythrocyte is cultured at 37° C. for 72 hours. A part of the cultured erythrocyte is subjected to Giemsa staining. Then, the number of cells infected with malaria is counted under microscope. EC50 values are calculated based on the measurement values.

In the case of `CN(CCNC(=O)C=Cc1c[nH]cn1)CCNc1ccnc2cc(Cl)ccc12` [uro-2Q, N-(2-{[2-(7-Chloro-quinolin-4-ylamino)ethyl]methylamino}ethyl)-3-(1H-imidazol-4-yl)acrylamide], the “cytotoxicity (EC50)” value [1] is reported as “lower toxicity as compared with existing drugs” and the “antimalarial activity (EC50)” value [2] is reported as “higher antimalarial activity”.
